In patent US6869957B1, “Non-peptide tachykinin receptor antagonists” (Eli Lilly and Company, priority 1993, dated 2005):

Tests used:
human NK-2 receptor = target: T1, human NK-2 receptor (Homo sapiens, UniProt P21452); experiment: NK-2 Receptor Binding Assay ([125I]iodohistidyl-neurokinin A, CHO-hNK-2R membranes); conditions: inhibits fifty percent of binding of [125I]iodohistidyl-neurokinin A to CHO-hNK-2R membranes
T1 construct: expressed in transfected cells; host or cells: CHO-hNK-2R cells (CHO-derived), membrane preparation
T1 sequence (P21452 1-398): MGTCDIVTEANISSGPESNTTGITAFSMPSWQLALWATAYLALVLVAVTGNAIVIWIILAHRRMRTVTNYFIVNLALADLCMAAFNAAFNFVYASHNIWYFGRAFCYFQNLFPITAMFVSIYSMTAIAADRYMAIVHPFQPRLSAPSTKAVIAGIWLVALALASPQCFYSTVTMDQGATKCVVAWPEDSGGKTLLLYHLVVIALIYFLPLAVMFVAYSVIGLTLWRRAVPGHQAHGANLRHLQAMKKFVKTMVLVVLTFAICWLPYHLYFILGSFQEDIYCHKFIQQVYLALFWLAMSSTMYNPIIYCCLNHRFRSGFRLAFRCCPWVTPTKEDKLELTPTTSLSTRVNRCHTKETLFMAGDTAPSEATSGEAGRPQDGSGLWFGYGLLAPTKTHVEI
Experimental: The biological activity of the compounds of the present invention was evaluated employing an initial screening assay which rapidly and accurately measured the binding of the tested compound to known NK-1 and NK-2 receptor sites. Assays useful for evaluating tachykinin receptor antagonists are well known in the art. See. e.g., J. Jukic, et al., Life Sciences, 49:1463-1469 (1991); N. Kucharczyk, et al., Journal of Medicinal Chemistry, 36:1654-1661 (1993); N. Rouissi, et al., Biochemical and Biophysical Research Communications, 176:894-901 (1991).
NK-2 Receptor Binding Assay
The CHO-hNK-2R cells, a CHO-derived cell line transformed with the human NK-2 receptor, expressing about 400,000 such receptors per cell, were grown in 75 cm^2 flasks or roller bottles in minimal essential medium (alpha modification) with 10% fetal bovine serum. The gene sequence of the human NK-2 receptor is given in N. P. Gerard, et al., Journal of Biological Chemistry, 265:20455-20462 (1990).
For preparation of membranes, 30 confluent roller bottle cultures were dissociated by washing each roller bottle with 10 ml of Dulbecco's phosphate buffered saline (PBS) without calcium and magnesium, followed by addition of 10 ml of enzyme-free cell dissociation solution (PBS-based, from Specialty Media, Inc.). After an additional 15 minutes, the dissociated cells were pooled and centrifuged at 1,000 RPM for 10 minutes in a clinical centrifuge. Membranes were prepared by homogenization of the cell pellets in 300 ml 50 mM Tris buffer, pH 7.4 with a Tekma® homogenizer for 10-15 seconds, followed by centrifugation at 12,000 RPM (20,000×g) for 30 minutes using a Beckman JA-14® rotor. The pellets were washed once using the above procedure. and the final pellets were resuspended in 100-120 ml 50 mM Tris buffer, pH 7.4, and 4 ml aliquots stored frozen at −70° C. The protein concentration of this preparation was 2 mg/ml.
For the receptor binding assay, one 4-ml aliquot of the CHO-hNK-2R membrane preparation was suspended in 40 ml of assay buffer containing 50 mM Tris, pH 7.4, 3 mM manganese chloride, 0.02% bovine serum albumin (BSA) and 4 μg/ml chymostatin. A 200 μl volume of the homogenate (40 μg protein) was used per sample. The radioactive ligand was [^125I]iodohistidyl-neurokinin A (New England Nuclear, NEX-252), 2200 Ci/mmol. The ligand was prepared in assay buffer at 20 nCi per 100 μl; the final concentration in the assay was 20 pM. Non-specific binding was determined using 1 μM eledoisin. Ten concentrations of eledoisin from 0.1 to 1000 nM were used for a standard concentration-response curve.
All samples and standards were added to the incubation in 10 μl dimethylsulfoxide (DMSO) for screening (single dose) or in 5 μl DMSO for IC50 determinations. The order of additions for incubation was 190 or 195 μl assay buffer, 200 μl homogenate, 10 or 5 μl sample in DMSO, 100 μl radioactive ligand. The samples were incubated 1 hr at room temperature and then filtered on a 48 well Brandel cell harvester through GF/B filters which had been presoaked for two hours in 50 mM Tris buffer, pH 7.7, containing 0.5% BSA. The filter was washed 3 times with approximately 3 ml of cold 50 mm Tris buffer, pH 7.7. The filter circles were then punched into 12×75 mm polystyrene tubes and counted in a gamma counter.

NK-1 receptor = target: T2, NK-1 receptor (Homo sapiens, UniProt P25103); experiment: NK-1 Receptor Binding Assay (125I-labeled substance P, IM9 cells); conditions: for IC50: inhibits fifty percent of binding of 125I-substance P to IM9 cells
T2 construct: endogenous in cells; host or cells: IM9 cells (human cell line), whole cells
Experimental: The biological activity of the compounds of the present invention was evaluated employing an initial screening assay which rapidly and accurately measured the binding of the tested compound to known NK-1 and NK-2 receptor sites. Assays useful for evaluating tachykinin receptor antagonists are well known in the art.
NK-1 Receptor Binding Assay
Radioreceptor binding assays were performed using a derivative of a previously published protocol.
The IM9 cell line is a well-characterized and readily available human cell line.
The reaction was terminated by filtration through a glass fiber filter harvesting system using filters previously soaked for 20 minutes in 0.1% polyethylenimine. Specific binding of labeled substance P was determined in the presence of 20 nM unlabeled ligand.

T2 sequence (P25103 whole entry): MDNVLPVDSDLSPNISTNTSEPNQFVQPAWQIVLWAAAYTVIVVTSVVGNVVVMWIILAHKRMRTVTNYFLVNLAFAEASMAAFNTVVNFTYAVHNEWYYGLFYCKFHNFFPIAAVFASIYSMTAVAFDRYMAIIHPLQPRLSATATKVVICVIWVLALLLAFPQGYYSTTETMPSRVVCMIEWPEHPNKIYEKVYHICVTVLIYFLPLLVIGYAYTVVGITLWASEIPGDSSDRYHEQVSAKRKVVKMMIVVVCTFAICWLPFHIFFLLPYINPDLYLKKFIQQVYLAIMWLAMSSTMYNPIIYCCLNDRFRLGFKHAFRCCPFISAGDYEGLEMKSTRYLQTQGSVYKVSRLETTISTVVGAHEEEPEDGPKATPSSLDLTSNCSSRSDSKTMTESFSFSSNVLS

IC50 (human NK-2 receptor) | IC50 (NK-1 receptor) | NK-1 percent inhibition of binding (NK-1 receptor; @ 5 μM) | NK-1 percent inhibition of binding (NK-1 receptor; @ 1 μM) | SMILES
2700 nM | 220 nM | – | – | COc1ccccc1CNCC(CC1CNc2ccccc21)NC(=O)CN1CCN(c2ccccc2)CC1 (mixture of isomers) [Example 137]
1200 nM | 52 nM | – | – | COc1ccccc1CN(CC(CC1CNc2ccccc21)NC(=O)CN1CCN(c2ccccc2)CC1)C(C)=O (mixture of isomers) [Example 144]
1900 nM | 76 nM | – | – | COc1ccccc1CN(CC(CC1CN(C(C)=O)c2ccccc21)NC(=O)CN1CCN(c2ccccc2)CC1)C(C)=O (mixture of isomers) [Example 145]
1800 nM | 0.25 nM | – | – | CC(=O)N(Cc1ccccc1Cl)CC(Cc1c[nH]c2ccccc12)NC(=O)CN1CCC(N2CCCCC2)CC1 (racemic) [Example 47]
1200 nM | 170 nM | – | – | COc1ccccc1CN(CC(Cc1c[nH]c2ccccc12)NC(=O)CCc1ccccc1)C(C)=O (racemic) [Example 89]
1000 nM | 9.6 nM | – | – | COc1ccccc1CN(CC(Cc1c[nH]c2ccccc12)NC(=O)CCC(=O)c1ccccc1)C(C)=O (racemic) [Example 95]
1700 nM | 53 nM | – | – | O=C(CN1CCN(c2ccccc2)CC1)NC(CNCc1ccccc1)Cc1c[nH]c2ccccc12 (stereo not drawn) [Example 1]
640 nM | 84 nM | – | – | CCN(Cc1ccccc1OC)CC(Cc1c[nH]c2ccccc12)NC(=O)CN1CCN(c2ccccc2)CC1 (stereo not drawn) [Example 9]
820 nM | 19 nM | – | – | COC(=O)CN(Cc1ccccc1OC)CC(Cc1c[nH]c2ccccc12)NC(=O)CN1CCN(c2ccccc2)CC1 (stereo not drawn) [Example 10]
2400 nM | 65 nM | – | – | COc1ccccc1CN(CC(=O)O)CC(Cc1c[nH]c2ccccc12)NC(=O)CN1CCN(c2ccccc2)CC1 (stereo not drawn) [Example 11]
1600 nM | 1.6 nM | – | – | CC(=O)N(Cc1ccccc1)CC(Cc1c[nH]c2ccccc12)NC(=O)CN1CCN(c2ccccc2)CC1 (stereo not drawn) [Example 12]
1000 nM | 3.1 nM | – | – | CC(=O)N(Cc1ccccc1C)CC(Cc1c[nH]c2ccccc12)NC(=O)CN1CCN(c2ccccc2)CC1 (stereo not drawn) [Example 14]
1200 nM | 4.2 nM | – | – | CC(=O)N(Cc1ccccc1[N+](=O)[O-])CC(Cc1c[nH]c2ccccc12)NC(=O)CN1CCN(c2ccccc2)CC1 (stereo not drawn) [Example 16]
870 nM | 6 nM | – | – | CC(=O)N(Cc1cccc(F)c1)CC(Cc1c[nH]c2ccccc12)NC(=O)CN1CCN(c2ccccc2)CC1 (stereo not drawn) [Example 20]
1200 nM | 4.6 nM | – | – | COc1cccc(CN(CC(Cc2c[nH]c3ccccc23)NC(=O)CN2CCN(c3ccccc3)CC2)C(C)=O)c1 (stereo not drawn) [Example 21]
3300 nM | 2.1 nM | – | – | COc1ccc(CN(CC(Cc2c[nH]c3ccccc23)NC(=O)CN2CCN(c3ccccc3)CC2)C(C)=O)cc1 (stereo not drawn) [Example 22]
810 nM | 13 nM | – | – | CSc1ccc(CN(CC(Cc2c[nH]c3ccccc23)NC(=O)CN2CCN(c3ccccc3)CC2)C(C)=O)cc1 (stereo not drawn) [Example 23]
640 nM | 1.2 nM | – | – | COc1ccccc1CN(C=O)CC(Cc1c[nH]c2ccccc12)NC(=O)CN1CCN(c2ccccc2)CC1 (stereo not drawn) [Example 24]

IC50 (human NK-2 receptor) | IC50 (NK-1 receptor) | NK-1 percent inhibition of binding (NK-1 receptor; @ 5 μM) | NK-1 percent inhibition of binding (NK-1 receptor; @ 1 μM) | SMILES
650 nM | 0.75 nM | – | – | CCC(=O)N(Cc1ccccc1OC)CC(Cc1c[nH]c2ccccc12)NC(=O)CN1CCN(c2ccccc2)CC1 (stereo not drawn) [Example 26]
710 nM | 1.6 nM | – | – | COc1ccccc1CN(CC(Cc1c[nH]c2ccccc12)NC(=O)CN1CCN(c2ccccc2)CC1)C(=O)c1ccccc1 (stereo not drawn) [Example 27]
1000 nM | 1.7 nM | – | – | CCOC(=O)N(Cc1ccccc1OC)CC(Cc1c[nH]c2ccccc12)NC(=O)CN1CCN(c2ccccc2)CC1 (stereo not drawn) [Example 28, 1-[N-ethoxycarbonyl-N-(2-methoxybenzyl)amino]-3-(1H-indol-3-yl)-2-[N-(2-((4-phenyl)piperazin-1-yl)acetyl)amino]propane]
1500 nM | 1.5 nM | – | – | CNC(=O)N(Cc1ccccc1OC)CC(Cc1c[nH]c2ccccc12)NC(=O)CN1CCN(c2ccccc2)CC1 (stereo not drawn) [Example 29, 3-(1H-indol-3-yl)-1-[N-(2-methoxybenzyl)-N-(methylaminocarbonyl)amino]-2-[N-(2-((4-phenyl)piperazin-1-yl)acetyl)amino]propane]
680 nM | 1 nM | – | – | COC(=O)CC(=O)N(Cc1ccccc1OC)CC(Cc1c[nH]c2ccccc12)NC(=O)CN1CCN(c2ccccc2)CC1 (stereo not drawn) [Example 30]
6200 nM | 9.2 nM | – | – | COc1ccccc1CN(CC(Cc1c[nH]c2ccccc12)NC(=O)CN1CCN(c2ccccc2)CC1)C(=O)CC(=O)O (stereo not drawn) [Example 31]
1100 nM | 0.98 nM | – | – | COc1ccccc1CN(CC(Cc1c[nH]c2ccccc12)NC(=O)CN1CCN(c2ccccc2)CC1)C(=O)COC(C)=O (stereo not drawn) [Example 32]
670 nM | 1.9 nM | – | – | COc1ccccc1CN(CC(Cc1c[nH]c2ccccc12)NC(=O)CN1CCN(c2ccccc2)CC1)C(=O)CO (stereo not drawn) [Example 33]
590 nM | 6.2 nM | – | – | COc1ccccc1CN(CC(Cc1c[nH]c2ccccc12)NC(=O)CN1CCN(c2ccccc2)CC1)C(=O)CN (stereo not drawn) [Example 34]
600 nM | 0.89 nM | – | – | COc1ccccc1CN(CC(Cc1c[nH]c2ccccc12)NC(=O)CN1CCN(c2ccccc2)CC1)C(=O)CN(C)C (stereo not drawn) [Example 35]
120 nM | 10 nM | – | – | COc1ccccc1CN(CC(Cc1c[nH]c2ccccc12)NC(=O)CN1CCN(c2ccccc2)CC1)C(=O)CNC(=O)OC(C)(C)C (stereo not drawn) [Example 36]
600 nM | 4.2 nM | – | – | COc1ccccc1CN(CC(Cc1c[nH]c2ccccc12)NC(=O)CN1CCN(c2ccccc2)CC1)S(C)(=O)=O (stereo not drawn) [Example 37]
8000 nM | – | 30% @ | – | CC(=O)N(C)CC(Cc1c[nH]c2ccccc12)NC(=O)CN1CCN(c2ccccc2)CC1 (stereo not drawn) [Example 38]
910 nM | 21.3 nM | – | – | CCCCCCN(CC(Cc1c[nH]c2ccccc12)NC(=O)CN1CCN(c2ccccc2)CC1)C(C)=O (stereo not drawn) [Example 40]
930 nM | 7.7 nM | – | – | CC(=O)N(CC1CCCCC1)CC(Cc1c[nH]c2ccccc12)NC(=O)CN1CCN(c2ccccc2)CC1 (stereo not drawn) [Example 41]
1200 nM | – | – | 16% @ | CC(=O)N(CC(Cc1c[nH]c2ccccc12)NC(=O)CN1CCN(c2ccccc2)CC1)c1ccccc1 (stereo not drawn) [Example 42]
39 nM | 179 nM | – | – | CC(=O)N(CCc1ccccc1)CC(Cc1c[nH]c2ccccc12)NC(=O)CN1CCN(c2ccccc2)CC1 (stereo not drawn) [Example 43]

SMILES | IC50 (human NK-2 receptor) | IC50 (NK-1 receptor) | NK-1 percent inhibition of binding (NK-1 receptor; @ 5 μM) | NK-1 percent inhibition of binding (NK-1 receptor; @ 1 μM)
COc1ccccc1CNCC(Cc1c[nH]c2ccccc12)NC(=O)CN1CCN(c2ccccc2)CC1 (stereo not drawn) [Example 4] | 1500 nM | 40 nM | – | –
